ChEMBL document CHEMBL4414594, “Hepatoprotective Tetrahydrobenzocyclooctabenzofuranone Lignans from Kadsura longipedunculata” (2019)
Activity calls are given as the source filed them. The rule behind the calls is not given here.

These molecules were tested on HepG2 (assay: Hepatoprotective activity against APAP-induced cytotoxicity in human HepG2 cells assessed as cell survival rate at 10 uM incubated for 48 hrs by MTT assay relative to control).
Format: functional
Work on COC(=O)c1cc(OC)c2c(c1-c1c(CO)cc(OC)c3c1OCO3)OCO2 [BICYCLOL] yielded an Activity of 49%. With COC1=C(OC)C(=O)[C@]23COc4c5c(cc(c42)[C@H](OC(=O)/C=C/c2ccccc2)[C@H](C)[C@@](C)(O)CC3=C1)OCO5 the Activity was 37%. With COC1=C(OC)C(=O)[C@]23COc4c5c(cc(c42)[C@H](OC(=O)/C=C/c2ccccc2)[C@H](C)[C@](C)(O)CC3=C1)OCO5 the Activity was 50.8%. For COc1c(O[C@@H]2O[C@H](CO)[C@@H](O)[C@H](O)[C@H]2O)cc2c(c1O)-c1c(cc3c(c1OC)OCO3)[C@H](O)[C@H](C)[C@H](C)C2, the Activity was “inactive”. In the case of COc1c(O)cc2c(c1OC)-c1c(cc(O)c(OC)c1OC)[C@H](OC(=O)c1ccccc1)[C@H](C)[C@H](C)C2, the Activity was “inactive”.

Each molecule was assayed on Peritoneal macrophage (assay: Antiinflammatory activity in C57BL/6J mouse peritoneal macrophages assessed as inhibition of LPS-induced nitric oxide production at 10 uM incubated for 24 hrs in presence of LPS by Griess test relative to control).
Format: functional
C/C=C/c1ccc(O[C@H](C)[C@@H](O)c2cc(O)c(OC)c(OC)c2)c(OC)c1 was tested, and the inhibition at 10 µM was 89.8%. C/C=C(/C)C(=O)O[C@H]1c2cc(O)c(O[C@@H]3O[C@H](CO)[C@@H](O)[C@H](O)[C@H]3O)c3c2[C@@]2(CO3)C(=O)C(OC)=C(OC)C=C2C[C@@H](C)[C@H]1C was tested, and the inhibition at 10 µM was 55.1%. With COC1=C(OC)C(=O)[C@]23COc4c5c(cc(c42)[C@H](OC(=O)/C=C/c2ccccc2)[C@H](C)[C@](C)(O)CC3=C1)OCO5 the inhibition at 10 µM was 74.9%.
